Laboratory results from patent US10383849B2, “Use of an acetylcholinesterase inhibitor and idalopirdine for reducing falls in Parkinson's disease patients” (H. Lundbeck A/S, priority 2016, dated 2019).

Key:
[1] = test system: DL rats (dual striatal-dopaminergic, cortical cholinergic system lesions); assay: MCMCT rod traversal, stationary and rotating rod (test days 2-5), Example 1; format: in vivo, Sprague Dawley rats; settings: for number of slips: rod days 2-5, DL/VEH 2.04+0.16, SH/VEH 1.60+0.11; for traversal speed (time per rod traversal): rod days 2-5, DL/VEH 4.62±0.25 s, SH/VEH 3.96±0.19 s, mean±SEM; for frequency of falls during rod traversal: s.c. 30 min before MCMCT, across all rod conditions days 2-5, compared with DL/VEH
Description: Adult male and female Sprague Dawley rats (Harlan; N=70; 35 males and 35 females) between 3 and 6 months of age were individually housed in opaque single standard cages (27.70 cm×20.30 cm) in a temperature- and humidity-controlled environment (23° C., 45%). […] The animals were maintained under a 12:12 hour light/dark schedule (lights on at 8:00 AM). Food (Rodent Chow; Harlan Teklad) was available ad libitum. Water access was gradually restricted over a 7-day period (12, 8, 5, 3, 1, 0.5, 0.25 hrs of water access per day) in the week before pre- and postsurgery behavioral testing. During testing, water was provided as rewards for correct responses during SAT performance and following beam traversals on the MCMCT (see below). Rats were also provided water ad libitum for 15 min following SAT performance each day.
Following pre-surgery training, animals underwent stereotaxic lesion surgeries followed by 4 weeks of recovery. During the final week of recovery animals were gradually water restricted. Drug effects were then assessed with 12 consecutive days of SAT and MCMCT sessions (see Table 1 for the battery of MCMCT test conditions):
Drug or vehicle injections were administered 30 minutes prior to SAT performance (˜9:30 injections, SAT testing 10:00-10:45 a.m.) and in the afternoon before MCMCT testing (˜3:30-6:00 p.m.). For the MCMCT runs, rats were injected individually so that trials began exactly 30 minutes after injection for each animal.
(§1) Of the 70 rats, 56 (28 females and 28 males) received dual striatal-dopaminergic, corticalcholinergic system lesions (DL) and were randomly assigned to 4 treatment conditions after surgeries (n=14/group, 7/sex). 14 rats (7/sex) received sham lesions. 6-OHDA was delivered bilaterally to dopamine terminals in the dorsal striatum (Sigma-Aldrich; 6.0 μg/2 μL/infusion, bolus; dissolved in 0.9% NaCl with 0.1% ascorbic acid; two infusion sites per hemisphere: AP+1.2 and +0.2 mm; ML ±2.5 and ±3.0 mm relative to bregma; DV −4.8 and −5.0 mm from skull). Desipramine hydrochloride (10 mg/kg; i.p.; Sigma-Aldrich) was administered to rats receiving 6-OHDA infusions 30 min prior to surgeries for protection of noradrenergic neurons^4. Basal forebrain cholinergic neurons situated in the nucleus basalis and substantia innominate were targeted with immunotoxin 192 IgG-saporin (Advanced Targeting Systems) in aCSF infused bilaterally (120 ng/μL; 0.5 μL/hemisphere; AP −0.8; ML ±2.9; DV −7.8). Sham rats received equal volumes of 0.9% NaCl with 0.1% ascorbic acid (striatum) and aCSF (basal forebrain) without neurotoxins.
Complex movement performance measures including fall propensity were assessed using the MCMCT (for details and an illustration see Kucinski, A. et al (2013) Modelling fall propensity in Parkinson's disease: Deficits in the attentional control of complex movements in rats with cortical-cholinergic and striatal-dopaminergic deafferentation. J Neurosci, 33, 16522-16539). This beam traversal apparatus was designed to tax the ability of rats to perform attention demanding movements and correct for stepping errors while crossing a narrow square rod surface (2.54 cm2). The ends of the beam (2.0 m length) were held in sockets that allowed the rod to be rotated by a gear motor (10 RPM) coupled to one end of the beam element. Traversal of the rod, particularly when rotating, reliably generated falls and other movement impairments in rats with dual lesions of striatal dopaminergic and cortical cholinergic inputs. A flat plank surface (13.3 cm wide) was also used to assess basic motor capacity and for habituation to the apparatus. Two identical platforms (23.0×31.5 cm area) situated at the opposite ends of the beam were surrounded by retractable walls (27.0 cm height) to form end-box structures. The walls are raised and lowered manually and secured in position by a friction clamp which rides in a vertical slot in the support structure under the platform. […]

[2] = test system: DL rats (dual striatal-dopaminergic, cortical cholinergic system lesions); assay: MCMCT rotating rod with passive doorframe distractor (test days 6, 7, 11); format: in vivo, Sprague Dawley rats; settings: compared with SH/VEH rats
Description: Of the 70 rats, 56 (28 females and 28 males) received dual striatal-dopaminergic, corticalcholinergic system lesions (DL) and were randomly assigned to 4 treatment conditions after surgeries (n=14/group, 7/sex). 14 rats (7/sex) received sham lesions. 6-OHDA was delivered bilaterally to dopamine terminals in the dorsal striatum (Sigma-Aldrich; 6.0 μg/2 μL/infusion, bolus; dissolved in 0.9% NaCl with 0.1% ascorbic acid; two infusion sites per hemisphere: AP+1.2 and +0.2 mm; ML ±2.5 and ±3.0 mm relative to bregma; DV −4.8 and −5.0 mm from skull). […]
Complex movement performance measures including fall propensity were assessed using the MCMCT (for details and an illustration see Kucinski, A. et al (2013) Modelling fall propensity in Parkinson's disease: Deficits in the attentional control of complex movements in rats with cortical-cholinergic and striatal-dopaminergic deafferentation. J Neurosci, 33, 16522-16539). […]
Falls, slips, and traversal time were assessed as described in Kucinski, A. et al (2013) Modelling fall propensity in Parkinson's disease: Deficits in the attentional control of complex movements in rats with cortical-cholinergic and striatal-dopaminergic deafferentation. […] A slip was scored when any of the rats' paws lost contact with the surface of the rod and extended below the lower horizontal border of the rod. […]

[3] = test system: DL rats (dual striatal-dopaminergic, cortical cholinergic system lesions); assay: MCMCT rotating rod with active distractor (water retrieval); format: in vivo, Sprague Dawley rats; settings: for number of animals that retrieved water in at least one trial: of 14 DL rats per group, licking water for at least 1 s, DL/VEH 9, SH/VEH 13
Description: as §1
Two distractors were presented during traversals. First, a passive doorframe distractor, comprised of a 46.0×39.4 cm surface with a door-frame shape cutout of 20 cm×10 cm made of foam core, was incorporated into the MCMCT test sequence. The distractor was placed at the midway point along the beam (100 cm mark) with side jambs 3.5 cm from the rod surface on both sides and the top border of the doorframe cutout 11 cm above the flat rod surface. […] Second, animals were tested with an active distractor task in which a water reward (3 drops of water; ˜150 μL) was presented on a platform (4.9 cm diameter) during traversals. The platform was also placed at the 100 cm mark, with 2-3 cm separating the rod and the platform.
Rats were first acclimated to the task in 4 shaping trials (test days 8 and 9). In these trials rats were placed directly on the stationary (non-rotating) rod adjacent to the platform (approximately midway across the beam) and allowed to drink the water from the platform. After shaping trials, rats underwent 4 test trials in which the rats performed unassisted traversals of the rotating rod (alternating directions) with presentations of water rewards. In two other test days (10 and 12), rats performed 10 test runs per day. In addition to falls, the number of water rewards earned, defined as licking/drinking water from the platform for ≥1 sec, were counted. All trials were recorded using a system of 4 bullet cameras (KT&C; model KPCS190SH Black/White Bullet Camera with ⅓″ SONY Super HAD CCD) with rotatable bases that were fastened to the outer support frame of the outer side of the apparatus by hand clamps. Performance measures were analyzed by video playback by experimenters blind to the lesion status and treatment regimen of the rats
Donepezil and idalopirdine were dissolved in 5% 2-hydroxypropyl-beta-cyclodextrin vehicle solution. Rats were divided into the following drug administration groups (14 per group, 7 per sex): sham-lesioned and administered vehicle (SH/VEH), DL and vehicle (DL/VEH), DL and donepezil (DL/DON), DL and idalopirdine (DL/IDL), and DL and idalopirdine plus donepezil (DL/DON+IDL). Solutions were prepared the night before administration and were replaced every 6 days. DON and IDL were dissolved in the same solution for the combination treatment. […]

patients with AD = settings: compared to donepezil treated patients; cited from earlier work

SMILES | number of slips [1] | traversal speed (time per rod traversal) [1] | frequency of falls during rod traversal [1] | doorframe-associated falls (fall rates in the presence of the doorframe) [2] | rod traversal performance in the presence of the active distractor ([3]; DL rats) | water retrieval count ([3]; DL rats, multiple comparisons (FIG. 3B)) | number of animals that retrieved water in at least one trial [3] | secondary endpoints including measures of global impression and daily living activities (patients with AD)
COc1cc2c(cc1OC)C(=O)C(CC1CCN(Cc3ccccc3)CC1)C2 (centres unmarked) [DON, donepezil] | 2.04+0.14 | 4.48 ± 0.36 s | tended to be lower than in DL/VEH rats but the effect did not reach significance | experienced more doorframe-associated falls than SH/VEH rats | did not significantly improve the performance | not significantly lower than DL/VEH | 10 | 
Fc1ccc2c(CCNCc3cccc(OCC(F)(F)C(F)F)c3)c[nH]c2c1 [IDL, N-(2-(6-fluoro-1H-indol-3-yl)ethyl)-3-(2,2,3,3-tetrafluoropropoxy) benzylamine] | 2.51+0.38 | 5.48 ± 0.45 s | fell as frequently as untreated DL rats | experienced more doorframe-associated falls than SH/VEH rats | did not significantly improve the performance |  | 11 | positive results
